Reference: PubChem BioAssay AID248 (DTP/NCI, 2004)
Values joined by “and” are separate entries in the source; they are usually repeats but may differ in a detail not shown here. Equal values may be shown once. Inconclusive results and toxic doses are left out. Cut-off read from the data, not from the text of the source: active = T/C of 150% or more; inactive = T/C below 125%.

Test system: L1210 leukemia ip in BDF1 mice, survival T/C
Test: NCI In Vivo Anticancer Drug Screen. Data for tumor model L1210 Leukemia (intraperitoneal) in B6D2F1 (BDF1) mice
Settings: endpoint: mean survival time, higher = longer survival
Method in brief: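 Transplanted-tumor mice were given test agent; controls received vehicle only. Survival readings from the two groups were divided (treated over control).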

[1] = dose: 100.0 mg/kg/injection, schedule: Q01DX001 (ip), vehicle: saline
[2] = dose: 200.0 mg/kg/injection, schedule: Q01DX001 (ip), vehicle: saline
[3] = dose: 400.0 mg/kg/injection, schedule: Q01DX001 (ip), vehicle: saline
[4] = dose: 100.0 mg/kg/injection, schedule: Q01DX009 (ip), vehicle: Klucel (hydroxypropylcellulose) (HPC)
[5] = dose: 200.0 mg/kg/injection, schedule: Q01DX009 (ip), vehicle: Klucel (hydroxypropylcellulose) (HPC)
[6] = dose: 100.0 mg/kg/injection, schedule: Q04DX003 (ip), vehicle: saline with Tween-80
[7] = dose: 50.0 mg/kg/injection, schedule: Q01DX009 (ip), vehicle: Klucel (hydroxypropylcellulose) (HPC)
[8] = dose: 100.0 mg/kg/injection, schedule: Q04DX003 (ip), vehicle: saline
[9] = dose: 200.0 mg/kg/injection, schedule: Q04DX003 (ip), vehicle: saline
[10] = dose: 100.0 mg/kg/injection, schedule: Q04DX003 (ip), vehicle: Klucel (hydroxypropylcellulose) (HPC)
[11] = dose: 200.0 mg/kg/injection, schedule: Q04DX003 (ip), vehicle: Klucel (hydroxypropylcellulose) (HPC)
[12] = dose: 400.0 mg/kg/injection, schedule: Q04DX003 (ip), vehicle: saline
[13] = dose: 100.0 mg/kg/injection, schedule: Q01DX009 (ip), vehicle: saline
[14] = dose: 200.0 mg/kg/injection, schedule: Q01DX009 (ip), vehicle: saline
[15] = dose: 400.0 mg/kg/injection, schedule: Q01DX009 (ip), vehicle: saline
[16] = dose: 50.0 mg/kg/injection, schedule: Q04DX002 (ip), vehicle: saline with Tween-80
[17] = dose: 100.0 mg/kg/injection, schedule: Q04DX002 (ip), vehicle: saline with Tween-80

Measured: T/C

C=COC(=O)CCCCCCC (tested in a mixture with another compound)
inactive: dose: 4.0 mg/kg/injection, schedule: Q01DX001 (ip), vehicle: acetone 89 % of control | dose: 5.0 mg/kg/injection, schedule: Q01DX001 (ip), vehicle: acetone 94 % of control | dose: 5.0 mg/kg/injection, schedule: Q01DX001 (ip), vehicle: saline 97 % of control | dose: 6.0 mg/kg/injection, schedule: Q01DX001 (ip), vehicle: acetone 106 % of control | dose: 10.0 mg/kg/injection, schedule: Q01DX001 (ip), vehicle: acetone 93 % of control | dose: 10.0 mg/kg/injection, schedule: Q01DX001 (ip), vehicle: saline 87 % of control | dose: 20.0 mg/kg/injection, schedule: Q01DX001 (ip), vehicle: acetone 92 % of control | dose: 20.0 mg/kg/injection, schedule: Q01DX001 (ip), vehicle: saline 101 % of control | dose: 40.0 mg/kg/injection, schedule: Q01DX001 (ip), vehicle: acetone 95 % of control | dose: 40.0 mg/kg/injection, schedule: Q01DX001 (ip), vehicle: saline 97 % of control | dose: 80.0 mg/kg/injection, schedule: Q01DX001 (ip), vehicle: acetone 90 % of control | dose: 80.0 mg/kg/injection, schedule: Q01DX001 (ip), vehicle: saline 102 % of control | [1] 110 % of control and 104 % of control and 105 % of control | [2] 94 % of control | [3] 100 % of control and 101 % of control

O=C(Nc1cc([N+](=O)[O-])ccc1O)c1ccc(Cl)c(Cl)c1
inactive: [4] 104 % of control | [5] 95 % of control | dose: 400.0 mg/kg/injection, schedule: Q01DX009 (ip), vehicle: Klucel (hydroxypropylcellulose) (HPC) 93 % of control

C[C@]12C[C@H](O)[C@H]3[C@@H](CCC4=CC(=O)CC[C@@]43C)[C@@H]1CC[C@@H]2C(=O)CF
inactive: dose: 50.0 mg/kg/injection, schedule: Q01DX Z (sc), vehicle: steriod suspending solution 95 % of control | dose: 250.0 mg/kg/injection, schedule: Q01DX Z (sc), vehicle: steriod suspending solution 102 % of control | dose: 500.0 mg/kg/injection, schedule: Q01DX Z (sc), vehicle: steriod suspending solution 98 % of control

Nc1nc2ccccc2c(=O)[nH]1
inactive: dose: 25.0 mg/kg/injection, schedule: Q04DX003 (ip), vehicle: saline with Tween-80 110 % of control | dose: 50.0 mg/kg/injection, schedule: Q04DX003 (ip), vehicle: saline with Tween-80 96 % of control | [6] 102 % of control and 106 % of control

O=S1(=O)c2ccccc2-c2ncccc21
inactive: dose: 25.0 mg/kg/injection, schedule: Q01DX001 (ip), vehicle: saline with Tween-80 105 % of control | dose: 50.0 mg/kg/injection, schedule: Q01DX001 (ip), vehicle: saline with Tween-80 109 % of control | dose: 100.0 mg/kg/injection, schedule: Q01DX001 (ip), vehicle: saline with Tween-80 109 % of control

CCCNc1ncc(C(=O)O)c(=O)[nH]1
inactive: [6] 93 % of control

O=C1OCC/C1=C/CCCCCC/C=C1\CCOC1=O
inactive: dose: 50.0 mg/kg/injection, schedule: Q01DX009 (ip), vehicle: DMSO 92 % of control | dose: 100.0 mg/kg/injection, schedule: Q01DX009 (ip), vehicle: DMSO 90 % of control | dose: 100.0 mg/kg/injection, schedule: Q04DX003 (ip), vehicle: DMSO 102 % of control | dose: 200.0 mg/kg/injection, schedule: Q01DX009 (ip), vehicle: DMSO 91 % of control | dose: 200.0 mg/kg/injection, schedule: Q04DX003 (ip), vehicle: DMSO 101 % of control | dose: 400.0 mg/kg/injection, schedule: Q04DX003 (ip), vehicle: DMSO 94 % of control

O=C1CCCCC1Nc1ccc(Br)cc1 (stereo not drawn)
inactive: [1] 98 % of control | [2] 98 % of control | [3] 98 % of control

CN(C)C1CCC2C3CC=C4CC(OC=O)CCC4(C)C3CCC21C (stereo not drawn)
inactive: dose: 9.38 mg/kg/injection, schedule: Q01DX001 (ip), vehicle: other 101 % of control | dose: 18.75 mg/kg/injection, schedule: Q01DX001 (ip), vehicle: other 101 % of control | dose: 37.5 mg/kg/injection, schedule: Q01DX001 (ip), vehicle: other 100 % of control

CCOc1ccc2nc(N)sc2c1
inactive: [7] 94 % of control | [4] 110 % of control | [8] 99 % of control | [5] 111 % of control | [9] 89 % of control

COC(=O)c1ccccc1NC(=O)Nc1ccccc1Cl
inactive: [7] 88 % of control | [4] 88 % of control | [10] 89 % of control | [11] 92 % of control

C1CC2OC2CC1C1CO1 (stereo not drawn)
inactive: [8] 105 % of control | [9] 109 % of control | [12] 102 % of control

CCC(=O)C1CCCCN1 (stereo not drawn)
inactive: dose: 25.0 mg/kg/injection, schedule: Q04DX002 (ip), vehicle: saline 94 % of control | dose: 50.0 mg/kg/injection, schedule: Q04DX002 (ip), vehicle: saline 94 % of control

CC(=O)c1ccc2c(c1)sc1cc(C(C)=O)ccc12
inactive: dose: 50.0 mg/kg/injection, schedule: Q01DX001 (ip), vehicle: carboxymethylcellulose (CMC) 96 % of control | dose: 100.0 mg/kg/injection, schedule: Q01DX001 (ip), vehicle: carboxymethylcellulose (CMC) 100 % of control | dose: 200.0 mg/kg/injection, schedule: Q01DX001 (ip), vehicle: carboxymethylcellulose (CMC) 90 % of control | dose: 400.0 mg/kg/injection, schedule: Q01DX001 (ip), vehicle: carboxymethylcellulose (CMC) 90 % of control

Cc1cc(=O)c2cccc(C)c2[nH]1
inactive: [4] 95 % of control | [10] 95 % of control | [5] 90 % of control | [11] 98 % of control | dose: 400.0 mg/kg/injection, schedule: Q04DX003 (ip), vehicle: Klucel (hydroxypropylcellulose) (HPC) 98 % of control

O=C(O)Cc1ccc2c(c1)OCO2.[Ag]
inactive: dose: 9.38 mg/kg/injection, schedule: Q01DX001 (ip), vehicle: steriod suspending solution 95 % of control | dose: 18.75 mg/kg/injection, schedule: Q01DX001 (ip), vehicle: steriod suspending solution 94 % of control | dose: 37.5 mg/kg/injection, schedule: Q01DX001 (ip), vehicle: steriod suspending solution 92 % of control

CC(N)(CCCN)C(=O)O (stereo not drawn)
inactive: [13] 102 % of control | [8] 104 % of control | [14] 102 % of control | [9] 102 % of control | [15] 94 % of control | [12] 101 % of control

CC(=O)Nc1ccccc1N
inactive: [13] 117 % of control | dose: 100.0 mg/kg/injection, schedule: Q04DX002 (ip), vehicle: Klucel (hydroxypropylcellulose) (HPC) 92 % of control | [14] 113 % of control | dose: 200.0 mg/kg/injection, schedule: Q04DX002 (ip), vehicle: Klucel (hydroxypropylcellulose) (HPC) 113 % of control | dose: 265.0 mg/kg/injection, schedule: Q01DX009 (ip), vehicle: saline 114 % of control | dose: 400.0 mg/kg/injection, schedule: Q04DX002 (ip), vehicle: Klucel (hydroxypropylcellulose) (HPC) 103 % of control

SCC1SCCCS1
inactive: dose: 12.5 mg/kg/injection, schedule: Q04DX002 (ip), vehicle: saline with Tween-80 97 % of control | dose: 25.0 mg/kg/injection, schedule: Q04DX002 (ip), vehicle: saline with Tween-80 113 % of control | [16] 97 % of control

CCOC(=O)C1(C(=O)OCC)CC(C)C1
inactive: [13] 101 % of control | [8] 101 % of control | [14] 108 % of control | [9] 93 % of control | [15] 96 % of control | [12] 104 % of control

CCOC(=O)c1ccc(NS(=O)(=O)c2c(C)cc(C)cc2C)cc1
inactive: dose: 100.0 mg/kg/injection, schedule: Q01DX009 (ip), vehicle: saline with Tween-80 104 % of control and 90 % of control | [17] 97 % of control and 103 % of control | [8] 95 % of control | dose: 200.0 mg/kg/injection, schedule: Q01DX009 (ip), vehicle: saline with Tween-80 95 % of control and 103 % of control | dose: 200.0 mg/kg/injection, schedule: Q04DX002 (ip), vehicle: saline with Tween-80 89 % of control and 91 % of control | [9] 96 % of control | dose: 400.0 mg/kg/injection, schedule: Q01DX009 (ip), vehicle: saline with Tween-80 95 % of control and 105 % of control | dose: 400.0 mg/kg/injection, schedule: Q04DX002 (ip), vehicle: saline with Tween-80 97 % of control and 87 % of control | [12] 91 % of control

Cc1ccc(S(=O)(=O)Nc2ccc(-c3ccc(NS(=O)(=O)c4ccc(C)cc4)cc3)cc2)cc1
inactive: [16] 89 % of control | [17] 95 % of control
